# From PubChem BioAssay (NCI)
#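 Results reflect a 48-hour exposure of cells in 96-well plates to compound at five concentrations. Definition used: TGI = concentration required for complete inhibition of growth.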
# Assays:
# Assay in all cases: NCI tumour cell line growth inhibition, 48 h
# [1] = tested on: NCI-H522 lung
# [2] = tested on: OVCAR-4 ovarian
# [3] = tested on: DMS 114 small cell lung
# [4] = tested on: RPMI-8226 leukemia
# [5] = tested on: OVCAR-5 ovarian
# [6] = tested on: HOP-92 NSCLC
# [7] = tested on: SK-MEL-2 melanoma
# [8] = tested on: TK-10 renal
# [9] = tested on: EKVX NSCLC
# [10] = tested on: HCT-116 colon
# [11] = tested on: SF-539 CNS
# [12] = tested on: NCI-H226 lung
# [13] = tested on: RXF-631 renal
# [14] = tested on: SF-268 CNS
# [15] = tested on: COLO 205 colon
# [16] = tested on: RXF 393 renal
# [17] = tested on: SNB-19 CNS
# [18] = tested on: CAKI-1 renal
# [19] = tested on: M14 melanoma
# [20] = tested on: MOLT-4 leukemia
# [21] = tested on: CCRF-CEM leukemia
# [22] = tested on: HT29 colon
# [23] = tested on: LXFL 529 NSCLC
# [24] = tested on: U251 CNS
# [25] = tested on: SK-MEL-5 melanoma
# [26] = tested on: UACC-62 melanoma
# [27] = tested on: SN12C renal
# [28] = tested on: HOP-18 NSCLC
# [29] = tested on: HL-60(TB) leukemia
# [30] = tested on: SF-295 CNS
# [31] = tested on: KM12 colon
# [32] = tested on: SR leukemia
# [33] = tested on: UACC-257 melanoma
# [34] = tested on: OVCAR-3 ovarian
# [35] = tested on: OVCAR-8 ovarian
# [36] = tested on: SK-MEL-28 melanoma
# [37] = tested on: LOX IMVI melanoma
# [38] = tested on: K-562 leukemia
# [39] = tested on: A549 NSCLC
# [40] = tested on: SW-620 colon
# [41] = tested on: ACHN renal
# [42] = tested on: NCI-H460 lung
# [43] = tested on: KM20L2 colon
# [44] = tested on: NCI-H23 lung
# [45] = tested on: SK-OV-3 ovarian
# [46] = tested on: HOP-62 NSCLC
# [47] = tested on: HCC-2998 colon
# [48] = tested on: MALME-3M melanoma
# [49] = tested on: 786-0 renal
# [50] = tested on: UO-31 renal
# [51] = tested on: DLD-1 colon
# [52] = tested on: XF 498 CNS
# [53] = tested on: SNB-75 CNS
# [54] = tested on: SNB-78 CNS
# [55] = tested on: DMS 273 small cell lung
# [56] = tested on: A498 renal
# [57] = tested on: M19-MEL melanoma
# [58] = tested on: IGROV1 ovarian
# [59] = tested on: HCT-15 colon
smiles,measurement,setting,value
CN(C)c1ccc(/C=C(\C#N)C(=O)c2ccccc2)cc1Br,TGI,[1],> 100 µM
same,TGI,[2],> 100 µM
same,TGI,[3],> 100 µM
same,TGI,[4],63.4 µM
same,TGI,[5],> 100 µM
same,TGI,[6],> 100 µM
same,TGI,[7],> 100 µM
same,TGI,[8],> 100 µM
same,TGI,[9],> 100 µM
same,TGI,[10],> 100 µM
same,TGI,[11],> 100 µM
same,TGI,[12],> 100 µM
same,TGI,[13],> 100 µM
same,TGI,[14],> 100 µM
same,TGI,[15],> 100 µM
same,TGI,[16],29.6 µM
same,TGI,[17],> 100 µM
same,TGI,[18],> 100 µM
same,TGI,[19],> 100 µM
same,TGI,[20],> 100 µM
same,TGI,[21],> 100 µM
same,TGI,[22],> 100 µM
same,TGI,[23],> 100 µM
same,TGI,[24],> 100 µM
same,TGI,[25],> 100 µM
same,TGI,[26],> 100 µM
same,TGI,[27],> 100 µM
same,TGI,[28],> 100 µM
same,TGI,[29],57.6 µM
same,TGI,[30],> 100 µM
same,TGI,[31],> 100 µM
same,TGI,[32],> 100 µM
same,TGI,[33],> 100 µM
same,TGI,[34],> 100 µM
same,TGI,[35],> 100 µM
same,TGI,[36],> 100 µM
same,TGI,[37],74.2 µM
same,TGI,[38],> 100 µM
same,TGI,[39],> 100 µM
same,TGI,[40],> 100 µM
same,TGI,[41],> 100 µM
same,TGI,[42],> 100 µM
same,TGI,[43],> 100 µM
same,TGI,[44],> 100 µM
same,TGI,[45],> 100 µM
same,TGI,[46],39.6 µM
same,TGI,[47],> 100 µM
same,TGI,[48],> 100 µM
same,TGI,[49],> 100 µM
same,TGI,[50],> 100 µM
same,TGI,[51],> 100 µM
same,TGI,[52],> 100 µM
same,TGI,[53],> 100 µM
same,TGI,[54],> 100 µM
same,TGI,[55],> 100 µM
O/N=C1/C(=C/c2ccc(Br)cc2)CCCC1C(NO)c1ccc(Br)cc1 (centres undefined),TGI,[56],23 µM
same,TGI,[1],32.9 µM
same,TGI,[2],23.3 µM
same,TGI,[3],29.6 µM
same,TGI,[4],48.4 µM
same,TGI,[5],24.6 µM
same,TGI,[6],26.5 µM
same,TGI,[7],34 µM
same,TGI,[8],33 µM
same,TGI,[10],31.3 µM
same,TGI,[11],44.8 µM
same,TGI,[13],30.8 µM
same,TGI,[14],34.1 µM
same,TGI,[15],28.7 µM
same,TGI,[16],31.1 µM
same,TGI,[17],32 µM
same,TGI,[19],29.9 µM
same,TGI,[20],31.7 µM
same,TGI,[21],51.2 µM
same,TGI,[22],35.4 µM
same,TGI,[57],32.1 µM
same,TGI,[23],27.9 µM
same,TGI,[58],32.4 µM
same,TGI,[24],45.3 µM
same,TGI,[26],27.8 µM
same,TGI,[27],24.9 µM
same,TGI,[28],33.8 µM
same,TGI,[29],> 100 µM
same,TGI,[30],30.4 µM
same,TGI,[31],38.3 µM
same,TGI,[33],33.3 µM
same,TGI,[34],31.1 µM
same,TGI,[35],31.5 µM
same,TGI,[36],34.4 µM
same,TGI,[37],35.5 µM
same,TGI,[38],> 100 µM
same,TGI,[39],32.1 µM
same,TGI,[40],38.6 µM
same,TGI,[41],31.2 µM
same,TGI,[59],31.8 µM
same,TGI,[43],32.5 µM
same,TGI,[45],44.8 µM
same,TGI,[48],31.9 µM
same,TGI,[49],32.9 µM
same,TGI,[50],31.3 µM
same,TGI,[53],36.4 µM
same,TGI,[54],32.6 µM
same,TGI,[55],25.8 µM
NC1=NN(c2ccccc2)C(=O)C1/C(=N\NC(=O)c1cc2ccccc2cc1O)C(=O)Nc1ccc(Cl)c(Cl)c1 (centres undefined),TGI,[56],> 100 µM
same,TGI,[1],37.2 µM
same,TGI,[2],> 100 µM
same,TGI,[3],82 µM
same,TGI,[4],> 100 µM
same,TGI,[5],> 100 µM
same,TGI,[6],92 µM
same,TGI,[7],> 100 µM
same,TGI,[8],> 100 µM
same,TGI,[9],63.6 µM
same,TGI,[10],> 100 µM
same,TGI,[11],> 100 µM
same,TGI,[12],> 100 µM
same,TGI,[14],> 100 µM
same,TGI,[15],36.6 µM
same,TGI,[16],> 100 µM
same,TGI,[17],> 100 µM
same,TGI,[18],> 100 µM
same,TGI,[19],72.5 µM
same,TGI,[20],75.6 µM
same,TGI,[21],57.7 µM
same,TGI,[22],> 100 µM
same,TGI,[23],> 100 µM
same,TGI,[58],> 100 µM
same,TGI,[24],> 100 µM
same,TGI,[25],79.4 µM
same,TGI,[26],44.1 µM
same,TGI,[27],> 100 µM
same,TGI,[28],> 100 µM
same,TGI,[29],39.8 µM
same,TGI,[30],> 100 µM
same,TGI,[31],> 100 µM
same,TGI,[32],5.71 µM
same,TGI,[33],84 µM
same,TGI,[34],54.8 µM
same,TGI,[35],> 100 µM
same,TGI,[36],> 100 µM
same,TGI,[37],> 100 µM
same,TGI,[38],> 100 µM
same,TGI,[39],> 100 µM
same,TGI,[40],> 100 µM
same,TGI,[41],> 100 µM
same,TGI,[59],> 100 µM
same,TGI,[42],85.5 µM
same,TGI,[43],65.8 µM
same,TGI,[44],63.5 µM
same,TGI,[46],> 100 µM
same,TGI,[47],> 100 µM
same,TGI,[48],97.6 µM
same,TGI,[49],> 100 µM
same,TGI,[50],> 100 µM
same,TGI,[51],> 100 µM
same,TGI,[52],71.6 µM
same,TGI,[53],> 100 µM
same,TGI,[54],> 100 µM
same,TGI,[55],40.7 µM
